Measurements reported in paper PMC5218480 (PLoS ONE, 2017).

Tested on: MV-4-11 cells
Experiment: Gene expression microarray analysis (Affymetrix PrimeView) and GSEA
Assay type: cell-based, human
Parameters: RFU PODN (11730768_x_at) / Fold change /veh PODN (11730768_x_at) / RFU LINC00158 (11744669_a_at) / Fold change /veh LINC00158 (11744669_a_at) / RFU DUSP10 (11751237_a_at) / Fold change /veh DUSP10 (11751237_a_at) / RFU ID3 (11757404_x_at) / Fold change /veh ID3 (11757404_x_at) / RFU PLEKHG5 (11737974_s_at) / Fold change /veh PLEKHG5 (11737974_s_at) / RFU LRRC4B (11730491_at) / Fold change /veh LRRC4B (11730491_at) / RFU GIMAP4 (11747438_a_at) / Fold change /veh GIMAP4 (11747438_a_at) / RFU KRT8 (11758183_x_at) / Fold change /veh KRT8 (11758183_x_at) / RFU CNN1 (11734310_a_at) / Fold change /veh CNN1 (11734310_a_at) / RFU VPS37D (11726825_at) / Fold change /veh VPS37D (11726825_at) / RFU C10orf10 (11716522_x_at) / Fold change /veh C10orf10 (11716522_x_at) / RFU KIR2DL2 /// KIR2DL4 /// KIR2DL5A /// KIR2DL5B /// KIR2DS1 /// KIR2DS2 /// KIR2DS3 /// KIR2DS4 /// KIR3DL3 /// KIR3DL3 /// KIR3DS1 (11738374_at) / Fold change /veh KIR2DL2 /// KIR2DL4 /// KIR2DL5A /// KIR2DL5B /// KIR2DS1 /// KIR2DS2 /// KIR2DS3 /// KIR2DS4 /// KIR3DL3 /// KIR3DL3 /// KIR3DS1 (11738374_at) / RFU C1QL1 (11718748_at) / Fold change /veh C1QL1 (11718748_at) / RFU TMPRSS4 (11747572_a_at) / Fold change /veh TMPRSS4 (11747572_a_at) / RFU HAMP (11756126_x_at) / Fold change /veh HAMP (11756126_x_at) / RFU RNFT2 (11725882_a_at) / Fold change /veh RNFT2 (11725882_a_at) / RFU NR4A2 (11747474_a_at) / Fold change /veh NR4A2 (11747474_a_at) / RFU ABCC12 (11746883_a_at) / Fold change /veh ABCC12 (11746883_a_at) / RFU TMEM136 (11760407_x_at) / Fold change /veh TMEM136 (11760407_x_at) / RFU CLDN22 /// WWC2 (11732394_at) / Fold change /veh CLDN22 /// WWC2 (11732394_at) / RFU HLA-DPB1 (11760878_x_at) / Fold change /veh HLA-DPB1 (11760878_x_at) / RFU SPINT1 (11716480_a_at) / Fold change /veh SPINT1 (11716480_a_at) / RFU GAP43 (11754022_s_at) / Fold change /veh GAP43 (11754022_s_at) / RFU A4GNT (11735810_at) / Fold change /veh A4GNT (11735810_at) / RFU PRB3 (11715151_x_at) / Fold change /veh PRB3 (11715151_x_at) / RFU TUBB4B (11761932_at) / Fold change /veh TUBB4B (11761932_at) / RFU CAPN14 (11732068_a_at) / Fold change /veh CAPN14 (11732068_a_at) / RFU TMCC2 (11721928_a_at) / Fold change /veh TMCC2 (11721928_a_at) / RFU IRGQ (11745062_a_at) / Fold change /veh IRGQ (11745062_a_at) / RFU FAM174B (11720279_a_at) / Fold change /veh FAM174B (11720279_a_at) / RFU TMPRSS4 (11748680_a_at) / Fold change /veh TMPRSS4 (11748680_a_at) / RFU FAM212B (11763350_a_at) / Fold change /veh FAM212B (11763350_a_at) / RFU PLEKHG5 (11743358_a_at) / Fold change /veh PLEKHG5 (11743358_a_at) / RFU ZSCAN30 (11745921_a_at) / Fold change /veh ZSCAN30 (11745921_a_at) / RFU CMKLR1 (11741424_a_at) / Fold change /veh CMKLR1 (11741424_a_at) / RFU LOC101060620 /// MAPK8IP1 (11723275_at) / Fold change /veh LOC101060620 /// MAPK8IP1 (11723275_at) / RFU SPTSSB (11747773_x_at) / Fold change /veh SPTSSB (11747773_x_at) / RFU PRSS12 (11739890_at) / Fold change /veh PRSS12 (11739890_at) / RFU BIN1 (11741810_x_at) / Fold change /veh BIN1 (11741810_x_at) / RFU WNT11 (11732464_a_at) / Fold change /veh WNT11 (11732464_a_at) / RFU C10orf10 (11716521_a_at) / Fold change /veh C10orf10 (11716521_a_at) / RFU C5orf56 (11738089_at) / Fold change /veh C5orf56 (11738089_at) / RFU CYB561 (11721691_x_at) / Fold change /veh CYB561 (11721691_x_at) / RFU ANKRD19P (11752326_a_at) / Fold change /veh ANKRD19P (11752326_a_at) / RFU OR2T12 /// OR2T33 /// OR2T8 (11738714_s_at) / Fold change /veh OR2T12 /// OR2T33 /// OR2T8 (11738714_s_at) / RFU VCAN (11748164_a_at) / Fold change /veh VCAN (11748164_a_at) / RFU JSRP1 (11732532_at) / Fold change /veh JSRP1 (11732532_at) / RFU KRTAP10-11 (11738290_x_at) / Fold change /veh KRTAP10-11 (11738290_x_at) / RFU MYO3A (11730013_a_at) / Fold change /veh MYO3A (11730013_a_at) / RFU EBF3 (11725865_a_at) / Fold change /veh EBF3 (11725865_a_at) / RFU CAMK2N1 (11719241_x_at) / Fold change /veh CAMK2N1 (11719241_x_at) / RFU C5orf56 (11738088_a_at) / Fold change /veh C5orf56 (11738088_a_at) / RFU OLFML3 (11715873_a_at) / Fold change /veh OLFML3 (11715873_a_at) / RFU LOC100653217 /// NTM (11731650_a_at) / Fold change /veh LOC100653217 /// NTM (11731650_a_at) / RFU MAPK11 (11762145_a_at) / Fold change /veh MAPK11 (11762145_a_at) / RFU FIZ1 (11724087_x_at) / Fold change /veh FIZ1 (11724087_x_at) / RFU OASL (11726364_x_at) / Fold change /veh OASL (11726364_x_at) / RFU SOX15 (11748057_x_at) / Fold change /veh SOX15 (11748057_x_at) / RFU CD79A (11719716_a_at) / Fold change /veh CD79A (11719716_a_at) / RFU HIST1H1D (11736915_at) / Fold change /veh HIST1H1D (11736915_at) / RFU CASKIN2 (11723855_a_at) / Fold change /veh CASKIN2 (11723855_a_at) / RFU LOC730098 (11760151_x_at) / Fold change /veh LOC730098 (11760151_x_at) / RFU OR4N2 (11742367_at) / Fold change /veh OR4N2 (11742367_at) / RFU PRRT2 (11749266_a_at) / Fold change /veh PRRT2 (11749266_a_at) / RFU SNX32 (11753110_a_at) / Fold change /veh SNX32 (11753110_a_at) / RFU CDHR5 (11726645_a_at) / Fold change /veh CDHR5 (11726645_a_at) / RFU RCAN1 (11760418_a_at) / Fold change /veh RCAN1 (11760418_a_at) / RFU FAM167A (11723789_a_at) / Fold change /veh FAM167A (11723789_a_at) / RFU FAM26E (11764081_at) / Fold change /veh FAM26E (11764081_at) / RFU ISYNA1 (11749810_s_at) / Fold change /veh ISYNA1 (11749810_s_at) / RFU ACY1 (11761880_at) / Fold change /veh ACY1 (11761880_at) / RFU 11764098_at / Fold change /veh 11764098_at / RFU SAMD14 (11745864_x_at) / Fold change /veh SAMD14 (11745864_x_at) / RFU NPB (11741838_a_at) / Fold change /veh NPB (11741838_a_at) / RFU TMPRSS6 (11731388_a_at) / Fold change /veh TMPRSS6 (11731388_a_at) / RFU KRTAP10-2 (11738614_at) / Fold change /veh KRTAP10-2 (11738614_at) / RFU ARHGAP8 /// PRR5-ARHGAP8 (11727945_x_at) / Fold change /veh ARHGAP8 /// PRR5-ARHGAP8 (11727945_x_at) / RFU KRTAP5-7 /// NADSYN1 (11734609_at) / Fold change /veh KRTAP5-7 /// NADSYN1 (11734609_at) / RFU RASL12 (11751679_a_at) / Fold change /veh RASL12 (11751679_a_at) / RFU CDKN2B (11736163_a_at) / Fold change /veh CDKN2B (11736163_a_at) / RFU PRF1 (11729649_at) / Fold change /veh PRF1 (11729649_at) / RFU, ZNF638 /// ZNF638-IT1 / Fold change vs veh, ZNF638 /// ZNF638-IT1 / RFU, PANK3 / Fold change vs veh, PANK3 / RFU, SH3YL1 / Fold change vs veh, SH3YL1 / RFU, ZEB2 / Fold change vs veh, ZEB2 / RFU, NRIP1 / Fold change vs veh, NRIP1 / RFU, PTTG1IP / Fold change vs veh, PTTG1IP / RFU, CAPN2 / Fold change vs veh, CAPN2 / RFU, MED14 / Fold change vs veh, MED14 / RFU, SNORA58 / Fold change vs veh, SNORA58 / RFU, C1orf63 / Fold change vs veh, C1orf63 / RFU, LRRFIP1 / Fold change vs veh, LRRFIP1 / RFU, NDUFAF7 / Fold change vs veh, NDUFAF7 / RFU, SLC12A2 / Fold change vs veh, SLC12A2 / RFU, IBTK / Fold change vs veh, IBTK / RFU, ESF1 / Fold change vs veh, ESF1 / Fold change vs veh, TMEM50B / RFU, TAOK1 / Fold change vs veh, TAOK1 / RFU, ACBD3 / Fold change vs veh, ACBD3 / RFU, TMA16 / Fold change vs veh, TMA16 / RFU, RWDD3 / Fold change vs veh, RWDD3 / RFU, BCAT1 / Fold change vs veh, BCAT1 / RFU, EDEM3 / Fold change vs veh, EDEM3 / RFU, TMEM33 / Fold change vs veh, TMEM33 / RFU, WDR75 / Fold change vs veh, WDR75 / RFU, AHCTF1 / Fold change vs veh, AHCTF1 / RFU, TFRC / Fold change vs veh, TFRC / RFU, ZDHHC17 / Fold change vs veh, ZDHHC17 / RFU, NOM1 / Fold change vs veh, NOM1 / RFU, ARL8B / Fold change vs veh, ARL8B / RFU, ZBTB11 / Fold change vs veh, ZBTB11 / RFU, TAMM41 / Fold change vs veh, TAMM41 / RFU, KIAA1704 /// LOC100996395 / Fold change vs veh, KIAA1704 /// LOC100996395 / RFU, ING1 / Fold change vs veh, ING1 / RFU, TRMT61B / Fold change vs veh, TRMT61B / RFU, FUBP3 / Fold change vs veh, FUBP3 / RFU, TP53 / Fold change vs veh, TP53 / RFU, TNKS2 / Fold change vs veh, TNKS2 / RFU, ZFP14 / Fold change vs veh, ZFP14 / RFU, ACTR2 / Fold change vs veh, ACTR2 / RFU, PPP3R1 / Fold change vs veh, PPP3R1 / RFU, PIK3R1 / Fold change vs veh, PIK3R1 / RFU, HNRNPA1 / Fold change vs veh, HNRNPA1 / RFU, RNF170 / Fold change vs veh, RNF170 / RFU, ZNF28 / Fold change vs veh, ZNF28 / RFU, RNGTT / Fold change vs veh, RNGTT / RFU, OGT / Fold change vs veh, OGT / RFU, BRD1 / Fold change vs veh, BRD1 / RFU, MARS / Fold change vs veh, MARS / RFU, ZNF655 / Fold change vs veh, ZNF655 / RFU, FAHD1 / Fold change vs veh, FAHD1 / RFU, BDP1 / Fold change vs veh, BDP1 / RFU, LRRCC1 / Fold change vs veh, LRRCC1 / RFU, ARID1A / Fold change vs veh, ARID1A / RFU, ZNF146 / Fold change vs veh, ZNF146 / RFU, ZNF330 / Fold change vs veh, ZNF330 / RFU, GPN3 / Fold change vs veh, GPN3 / RFU, C9orf123 / Fold change vs veh, C9orf123 / RFU, N4BP2L2 / Fold change vs veh, N4BP2L2 / RFU, ARFIP1 / Fold change vs veh, ARFIP1 / RFU, FAM179B / Fold change vs veh, FAM179B / RFU, BCL10 / Fold change vs veh, BCL10 / RFU, UHRF1BP1L / Fold change vs veh, UHRF1BP1L / RFU, BET1 / Fold change vs veh, BET1 / RFU, CNOT2 / Fold change vs veh, CNOT2 / RFU, ZNF268 / Fold change vs veh, ZNF268 / Fold change vs veh, ZNF507 / RFU, DGCR2 / Fold change vs veh, DGCR2 / RFU, WDSUB1 / Fold change vs veh, WDSUB1 / Fold change vs veh, HSP90B1 /// MIR3652 / RFU, ADSS / Fold change vs veh, ADSS / RFU, GK / Fold change vs veh, GK / RFU, ZNF148 / Fold change vs veh, ZNF148 / RFU, TAF9 / Fold change vs veh, TAF9 / RFU, SLC1A5 / Fold change vs veh, SLC1A5 / RFU, SLMO2 / Fold change vs veh, SLMO2 / RFU, ABCC4 / Fold change vs veh, ABCC4 / RFU, LOC101060439 /// RAP1B / Fold change vs veh, LOC101060439 /// RAP1B / RFU, RFX7 / Fold change vs veh, RFX7 / RFU, GTPBP10 / Fold change vs veh, GTPBP10 / RFU, CNEP1R1 / Fold change vs veh, CNEP1R1 / RFU, BIVM-ERCC5 /// ERCC5 / Fold change vs veh, BIVM-ERCC5 /// ERCC5 / RFU, ILF3 / Fold change vs veh, ILF3 / RFU 11762660_at / Fold change /veh 11762660_at / RFU VCAN (11757783_s_at) / Fold change /veh VCAN (11757783_s_at) / RFU DDX43 (11728927_at) / Fold change /veh DDX43 (11728927_at) / RFU KRT8 (11758188_x_at) / Fold change /veh KRT8 (11758188_x_at) / RFU NKD1 (11759106_at) / Fold change /veh NKD1 (11759106_at) / RFU SRD5A1 (11742802_a_at) / Fold change /veh SRD5A1 (11742802_a_at) / RFU TPSAB1 /// TPSB2 (11721975_s_at) / Fold change /veh TPSAB1 /// TPSB2 (11721975_s_at) / RFU GSTM3 (11746129_a_at) / Fold change /veh GSTM3 (11746129_a_at) / RFU IL23R (11737362_x_at) / Fold change /veh IL23R (11737362_x_at) / RFU TMEM51 (11727254_a_at) / Fold change /veh TMEM51 (11727254_a_at) / RFU PIWIL2 (11732686_x_at) / Fold change /veh PIWIL2 (11732686_x_at) / RFU ORM1 (11744905_x_at) / Fold change /veh ORM1 (11744905_x_at) / RFU CCDC152 (11743942_at) / Fold change /veh CCDC152 (11743942_at) / RFU ECM1 (11717891_a_at) / Fold change /veh ECM1 (11717891_a_at) / RFU IL23R (11748794_a_at) / Fold change /veh IL23R (11748794_a_at) / RFU TNFAIP8L3 (11732012_x_at) / Fold change /veh TNFAIP8L3 (11732012_x_at) / RFU MBOAT4 (11741988_at) / Fold change /veh MBOAT4 (11741988_at) / RFU 11764193_at / Fold change /veh 11764193_at / RFU TMEM53 (11763286_at) / Fold change /veh TMEM53 (11763286_at) / RFU MAGEB2 (11727129_at) / Fold change /veh MAGEB2 (11727129_at) / RFU TMEM200A (11744735_a_at) / Fold change /veh TMEM200A (11744735_a_at) / RFU CCDC152 (11751479_a_at) / Fold change /veh CCDC152 (11751479_a_at) / RFU FAM211A (11726209_a_at) / Fold change /veh FAM211A (11726209_a_at) / RFU RGS16 (11746705_a_at) / Fold change /veh RGS16 (11746705_a_at) / RFU VCAN (11755009_s_at) / Fold change /veh VCAN (11755009_s_at) / RFU RHOB (11743442_s_at) / Fold change /veh RHOB (11743442_s_at) / RFU RGS16 (11720943_a_at) / Fold change /veh RGS16 (11720943_a_at) / RFU RGS16 (11720944_at) / Fold change /veh RGS16 (11720944_at) / RFU, VPS4B / Fold change vs veh, VPS4B / RFU, CREB1 / Fold change vs veh, CREB1 / RFU, DNAJC13 / Fold change vs veh, DNAJC13 / RFU, GNAQ / Fold change vs veh, GNAQ / RFU, CDK5R1 / Fold change vs veh, CDK5R1 / RFU, ZRANB3 / Fold change vs veh, ZRANB3 / RFU, CUL4A / Fold change vs veh, CUL4A / RFU, CCNY / Fold change vs veh, CCNY / RFU, UFL1 / Fold change vs veh, UFL1 / RFU, COG3 / Fold change vs veh, COG3 / RFU, DIAPH2 / Fold change vs veh, DIAPH2 / RFU, SKA2 / Fold change vs veh, SKA2 / RFU, AFF3 / Fold change vs veh, AFF3 / RFU, LMF1 / Fold change vs veh, LMF1 / RFU, IPO11 / Fold change vs veh, IPO11 / RFU, DFFB / Fold change vs veh, DFFB / RFU, FOXP1 / Fold change vs veh, FOXP1 / RFU, CARD8 / Fold change vs veh, CARD8 / RFU, STRN3 / Fold change vs veh, STRN3 / RFU, ADK / Fold change vs veh, ADK / RFU, RASSF2 / Fold change vs veh, RASSF2 / RFU, WIPF1 / Fold change vs veh, WIPF1 / RFU, LARP1B / Fold change vs veh, LARP1B / RFU, RASA1 / Fold change vs veh, RASA1 / RFU, RB1 / Fold change vs veh, RB1 / RFU, PPFIA1 / Fold change vs veh, PPFIA1 / RFU, MAT2A / Fold change vs veh, MAT2A / RFU, CCT5 / Fold change vs veh, CCT5 / RFU, WDR92 / Fold change vs veh, WDR92 / RFU, CUX1 / Fold change vs veh, CUX1 / RFU, TTC7A / Fold change vs veh, TTC7A / RFU, TMEM135 / Fold change vs veh, TMEM135 / RFU, DEPTOR / Fold change vs veh, DEPTOR / RFU, CPM / Fold change vs veh, CPM / RFU, DNAJB6 / Fold change vs veh, DNAJB6 / RFU, CACNA2D3 / Fold change vs veh, CACNA2D3 / RFU, DTX4 / Fold change vs veh, DTX4 / RFU, TFCP2 / Fold change vs veh, TFCP2 / RFU, GMCL1 /// GMCL1P1 / Fold change vs veh, GMCL1 /// GMCL1P1 / RFU, AEBP2 / Fold change vs veh, AEBP2 / RFU, SNHG1 /// SNORD22 /// SNORD25 /// SNORD26 /// SNORD27 /// SNORD28 /// SNORD29 /// SNORD31 / Fold change vs veh, SNHG1 /// SNORD22 /// SNORD25 /// SNORD26 /// SNORD27 /// SNORD28 /// SNORD29 /// SNORD31 / Fold change (Aza/veh), C12orf56 (ProbeSet 11735607_a_at) / Fold change (ACY-1035/veh), C12orf56 (ProbeSet 11735607_a_at) / Fold change (Aza/veh), FGFR1OP (ProbeSet 11751329_s_at) / Fold change (ACY-1035/veh), FGFR1OP (ProbeSet 11751329_s_at) / Fold change (Aza/veh), VPS36 (ProbeSet 11739960_a_at) / Fold change (ACY-1035/veh), VPS36 (ProbeSet 11739960_a_at) / RFU SYPL1 (11715823_x_at) / Fold change /veh SYPL1 (11715823_x_at) / RFU IGFBP7 (11715501_s_at) / Fold change /veh IGFBP7 (11715501_s_at) / RFU REEP3 (11722064_at) / Fold change /veh REEP3 (11722064_at) / RFU IGLL1 (11728026_x_at) / Fold change /veh IGLL1 (11728026_x_at): dose or concentration left out as unconfirmed
Settings: ProbeSet 11749645_x_at; LIST B

`Nc1ncn([C@@H]2O[C@H](CO)[C@@H](O)[C@H]2O)c(=O)n1` [azacitidine] was tested, and the “Fold change vs veh, ZNF268” value was 0.97.
